Target: Peptidoglycan D,D-transpeptidase FtsI (Pseudomonas aeruginosa (strain PA7), UniProt A6VB91)
Assay: IC50 Assay
Conditions: pH 7.2; 25 °C
Protocol: An appropriate amount of enzyme (4uM) was pre-incubated with the (5R)- or 5(S)-penicilloic acid in the assay buffer (50mM HEPES-NaOH buffer (pH 7.2) supplemented with 0.01% Triton-100) at room temperature for 10 min. Nitrocefin (100uM) was added to initiate the assay. The IC50 values were determined using the software package Graph Prism 5.01.

Sequence of Peptidoglycan D,D-transpeptidase FtsI (A6VB91 whole entry): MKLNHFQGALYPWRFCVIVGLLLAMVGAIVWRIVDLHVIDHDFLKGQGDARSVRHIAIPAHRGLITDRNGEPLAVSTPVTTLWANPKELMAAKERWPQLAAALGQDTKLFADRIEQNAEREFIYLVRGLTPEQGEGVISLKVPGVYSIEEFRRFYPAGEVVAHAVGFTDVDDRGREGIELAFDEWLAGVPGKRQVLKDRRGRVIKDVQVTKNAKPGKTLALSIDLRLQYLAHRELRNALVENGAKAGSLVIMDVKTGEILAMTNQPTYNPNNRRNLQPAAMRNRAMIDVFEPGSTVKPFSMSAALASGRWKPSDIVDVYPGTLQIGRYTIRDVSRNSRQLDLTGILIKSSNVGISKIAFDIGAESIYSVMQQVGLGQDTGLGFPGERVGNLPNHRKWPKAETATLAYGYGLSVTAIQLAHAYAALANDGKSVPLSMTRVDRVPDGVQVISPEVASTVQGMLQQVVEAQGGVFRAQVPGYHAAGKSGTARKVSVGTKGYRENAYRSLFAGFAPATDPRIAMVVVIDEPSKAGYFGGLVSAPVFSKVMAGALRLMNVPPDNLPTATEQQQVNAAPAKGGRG

| IC50 [µM] | Compound |
| --- | --- |
| 0.166 | CCN1CCN(C(=O)N[C@@H](C(=O)N[C@@H]2C(=O)N3[C@@H]2SC(C)(C)[C@@H]3C(=O)O)c2ccccc2)C(=O)C1=O |
| 196 | CCN1CCN(C(=O)N[C@@H](C(=O)N[C@H](C(=O)O)[C@@H]2N[C@@H](C(=O)O)C(C)(C)S2)C2C=CC=CC2)C(=O)C1=O (stereo partly drawn) [(5R)-PA] |
| 126 | CCN1CCN(C(=O)N[C@@H](C(=O)N[C@H](C(=O)O)[C@H]2N[C@@H](C(=O)O)C(C)(C)S2)C2C=CC=CC2)C(=O)C1=O (stereo partly drawn) [(5S)-PA] |
